{"source": "patent US12479877B2", "about": "“Methods for purifying steviol glycosides and uses of the same” (PureCircle Sdn. Bhd., priority 2010, dated 2025)", "key": {"[1]": {"test": "Solubility of 600 ppm Reb X stock solution in citric buffer", "assay_type": "physicochemical", "settings": "0.06% (w/v) in citric buffer at up to 52° C. for ca. 15-20 minutes", "protocol": "The isosweetness levels of Reb X in a citric buffer system at room temperature and 4° C. were evaluated. A 600 ppm stock solution of Reb X was prepared by adding a mass of 0.15 g into a 250 mL sample of citric buffer (CB) solution. The mixture was moderately stirred at warmer temperature (up to ca. 52° C.) on a heated stirrer for about 15-20 minutes and then cooled. The citric buffer was prepared by adding 1.6 g citric acid, 0.6 g potassium citrate and 0.253 g sodium benzoate in 1 L of carbon-treated water. The pH of the mixture was 3.1. […] The controls of 0.75%, 2%, 4%, 6%, 8%, 10% and 15% sucrose equivalence (SE) were also prepared by adding sugar (w/v) into the CB. The mixtures were moderately stirred and then ready for the isosweetness determination test. The Reb X samples were then evaluated against the control sugar samples in citric buffer at room temperature (RT) and 4° C. (in an ice bath) by one experienced taster for an isosweetness determination using the controlled, multi-sip and swallow taste method.\nDespite the stronger mouthfeel or texture effect (syrupy, thicker) at ca. 15% sucrose, it was difficult to determine the isosweetness levels for at least 400 ppm of Reb X due to its thinner mouthfeel but broader and more impact sweetness temporal profile as well as its significant sweet lingering."}, "panelists": {"tested_on": "panelists", "test": "Sensory properties in acidified water (pH 3.0) at 500 mg/L, 20 panelists", "assay_type": "in vivo, human", "settings": "500 ppm, acidified water pH 3.0, 20 panelists", "protocol": "The sensory properties of Reb X were evaluated in acidified water (pH 3.0 by phosphoric acid) at 500 mg/L concentration by 20 panelists."}, "one experienced taster": {"tested_on": "one experienced taster", "test": "Isosweetness determination of Reb X in citric buffer against sucrose controls", "assay_type": "in vivo, human", "settings": "for Estimated % Sweetness Equivalence in Citric Buffer at 4° C.: citric buffer pH 3.1, 4° C.; for Estimated % Sweetness Equivalence in Citric Buffer at RT: citric buffer pH 3.1, RT", "protocol": "The isosweetness levels of Reb X in a citric buffer system at room temperature and 4° C. were evaluated. A 600 ppm stock solution of Reb X was prepared by adding a mass of 0.15 g into a 250 mL sample of citric buffer (CB) solution. The mixture was moderately stirred at warmer temperature (up to ca. 52° C.) on a heated stirrer for about 15-20 minutes and then cooled. The citric buffer was prepared by adding 1.6 g citric acid, 0.6 g potassium citrate and 0.253 g sodium benzoate in 1 L of carbon-treated water. The pH of the mixture was 3.1. Seven diluted Reb X solutions at […], 25, 50, 100, 200, 300, 400 and 500 ppm were prepared by adding a 2.08, 4.17, 8.33, 16.67, 25.00, 33.33 and 41.67 mL Reb X stock solution, respectively, into each 50 mL solution of CB. The controls of 0.75%, 2%, 4%, 6%, 8%, 10% and 15% sucrose equivalence (SE) were also prepared by adding sugar (w/v) into the CB. The mixtures were moderately stirred and then ready for the isosweetness determination test. The Reb X samples were then evaluated against the control sugar samples in citric buffer at room temperature (RT) and 4° C. (in an ice bath) by one experienced taster for an isosweetness determination using the controlled, multi-sip and swallow taste method."}, "[2]": {"test": "Solubility studies in carbon-treated water and citrate buffer", "assay_type": "physicochemical", "protocol": "Citric buffer was prepared by mixing 1.171 g/L citric acid, 0.275 g/L sodium citrate and 0.185 g/L sodium benzoate with carbon-treated water, with a final pH of 3.22. The mixtures were moderately stirred at room temperature. The Reb X sample was then evaluated against the two control Reb A and Reb D samples in water and citric buffer at room temperature (RT) and at 4° C. in an ice bath by one experienced panelist for any tasting quality determinations using the controlled, multi-sip and swallow taste method shown below:\nThe samples used to evaluate the taste properties in Example 2 were also used for solubility studies."}, "panel of trained tasters": {"tested_on": "panel of trained tasters", "test": "Reb X sweetness vs. concentration, matched to sucrose references", "assay_type": "in vivo, human", "settings": "for Reb X Concentration (ppm) matching sucrose reference: Reb X 98% purity, water at room temperature", "protocol": "2.5%, 5.0%, 7.5%, and 10.0% sucrose solutions were prepared in neutral (7.0 pH) and acidified water (3.2 pH) as reference samples. Solutions containing Reb X (98% purity) were prepared to match the sweetness of each sucrose reference in neutral and acidified water. Samples were tasted and verified by a panel of trained tasters in water at room temperature."}, "[3]": {"test": "Beverage formulations: taste properties compared with Reb A", "assay_type": "in vivo, human"}, "[4]": {"settings": "Sweetness Equivalent (SE) 10.0%"}}, "note": "Where “and” joins values, the source holds several entries; their conditions need not be identical. Identical values can stand only once.", "data": [{"smiles": "C=C1C[C@@]23CCC4[C@](C)(C(=O)OC5OC(CO)C(O)C(OC6OC(CO)C(O)C(O)C6O)C5OC5OC(CO)C(O)C(O)C5O)CCC[C@@]4(C)[C@@H]2CCC1(OC1OC(CO)C(O)C(OC2OC(CO)C(O)C(O)C2O)C1OC1OC(CO)C(O)C(O)C1O)C3", "note": "(stereo partly drawn) [Reb X, (13-[2-O-β-D-glucopyranosyl-3-O-β-D-glucopyranosyl-β-D-glucopyranosyl)oxy] ent kaur-16-en-19-oic acid-[2-O-β-D-glucopyranosyl-3-O-β-D-glycopyranosyl) ester]", "values": [{"measurement": "Solubility and appearance", "setting": "[1]", "value": "very soluble and clear (colorless)"}, {"measurement": "Astringent taste: Number of panelists detected the attribute", "setting": "panelists", "value": 0}, {"measurement": "Bitter taste: Number of panelists detected the attribute", "setting": "panelists", "value": 0}, {"measurement": "Licorice taste: Number of panelists detected the attribute", "setting": "panelists", "value": 0}, {"measurement": "Overall evaluation: Satisfactory (number of panelists of 20)", "setting": "panelists", "value": "(20 of 20)"}, {"measurement": "Quality of sweet taste: Clean (number of panelists of 20)", "setting": "panelists", "value": "Clean (20"}, {"measurement": "Sweet Aftertaste: Number of panelists detected the attribute", "setting": "panelists", "value": 0}, {"measurement": "Taste profile compared to already known steviol glycosides", "setting": "panelists", "value": "superior taste profile"}, {"measurement": "Estimated % Sweetness Equivalence in Citric Buffer at 4° C.", "setting": "one experienced taster; Reb X 12.5 ppm", "value": 0.75, "unit": "%"}, {"measurement": "Estimated % Sweetness Equivalence in Citric Buffer at RT", "setting": "one experienced taster; Reb X 12.5 ppm", "value": 0.5, "unit": "%"}, {"measurement": "Estimated % Sweetness Equivalence in Citric Buffer at 4° C.", "setting": "one experienced taster; Reb X 25 ppm", "value": 1.5, "unit": "%"}, {"measurement": "Estimated % Sweetness Equivalence in Citric Buffer at RT", "setting": "one experienced taster; Reb X 25 ppm", "value": "1.0-1.5%"}, {"measurement": "Estimated % Sweetness Equivalence in Citric Buffer at 4° C.", "setting": "one experienced taster; Reb X 50 ppm", "value": "3.0-3.5%"}, {"measurement": "Estimated % Sweetness Equivalence in Citric Buffer at RT", "setting": "one experienced taster; Reb X 50 ppm", "value": "3.25-3.75%"}, {"measurement": "Estimated % Sweetness Equivalence in Citric Buffer at 4° C.", "setting": "one experienced taster; Reb X 100 ppm", "value": 5.5, "unit": "%"}, {"measurement": "Estimated % Sweetness Equivalence in Citric Buffer at RT", "setting": "one experienced taster; Reb X 100 ppm", "value": 5.0, "unit": "%"}, {"measurement": "Estimated % Sweetness Equivalence in Citric Buffer at 4° C.", "setting": "one experienced taster; Reb X 200 ppm", "value": 8.0, "unit": "%"}, {"measurement": "Estimated % Sweetness Equivalence in Citric Buffer at RT", "setting": "one experienced taster; Reb X 200 ppm", "value": 8.0, "unit": "%"}, {"measurement": "Estimated % Sweetness Equivalence in Citric Buffer at 4° C.", "setting": "one experienced taster; Reb X 300 ppm", "value": "11.0-12.0%"}, {"measurement": "Estimated % Sweetness Equivalence in Citric Buffer at RT", "setting": "one experienced taster; Reb X 300 ppm", "value": 12.0, "unit": "%"}, {"measurement": "Estimated % Sweetness Equivalence in Citric Buffer at 4° C.", "setting": "one experienced taster; Reb X 400 ppm", "value": "14.0-14.5%"}, {"measurement": "Estimated % Sweetness Equivalence in Citric Buffer at RT", "setting": "one experienced taster; Reb X 400 ppm", "value": "14.0-14.5%"}, {"measurement": "Estimated % Sweetness Equivalence in Citric Buffer at 4° C.", "setting": "one experienced taster; Reb X 500 ppm", "value": "15.5-16.0%"}, {"measurement": "Estimated % Sweetness Equivalence in Citric Buffer at RT", "setting": "one experienced taster; Reb X 500 ppm", "value": "15.5-16.0%"}, {"measurement": "Estimated % Sweetness Equivalence in Citric Buffer at 4° C.", "setting": "one experienced taster; Reb X 600 ppm", "value": "16.5-17.0%"}, {"measurement": "Estimated % Sweetness Equivalence in Citric Buffer at RT", "setting": "one experienced taster; Reb X 600 ppm", "value": "16.5-17.0%"}, {"measurement": "Sweetness intensity difference between RT and 4° C.", "setting": "one experienced taster; Reb X concentration range, direct comparison with control sucrose at similar temperatures", "value": "no significant sweetness intensity difference"}, {"measurement": "Sweetness tasting quality", "setting": "one experienced taster; all concentrations (12.5-600 ppm) in citric buffer", "value": "pleasant sweetness tasting quality with a slight delay of sweetness onset and no bitterness"}, {"measurement": "Off-flavors", "setting": "one experienced taster; any Reb X concentrations in CB at 4° C., except at least ca. 300 ppm", "value": "No off-flavors"}, {"measurement": "Sweetness lingering", "setting": "one experienced taster; at least ca. 300 ppm Reb X in CB at 4° C.", "value": "longer sweetness lingering"}, {"measurement": "Estimated time to solubilize", "setting": "[2]; 0.01% in carbon-treated water", "value": 15, "unit": "min"}, {"measurement": "Estimated time to solubilize", "setting": "[2]; 0.01% in citrate buffer", "value": 25, "unit": "min"}, {"measurement": "Estimated time to solubilize", "setting": "[2]; 0.02% in carbon-treated water", "value": 25, "unit": "min"}, {"measurement": "Estimated time to solubilize", "setting": "[2]; 0.02% in citrate buffer", "value": 25, "unit": "min"}, {"measurement": "Estimated time to solubilize", "setting": "[2]; 0.04% in carbon-treated water", "value": 33, "unit": "min"}, {"measurement": "Estimated time to solubilize", "setting": "[2]; 0.04% in citrate buffer", "value": 35, "unit": "min"}, {"measurement": "Estimated time to solubilize", "setting": "[2]; 0.05% in carbon-treated water", "value": 39, "unit": "min"}, {"measurement": "Estimated time to solubilize", "setting": "[2]; 0.05% in citrate buffer", "value": 42, "unit": "min"}, {"measurement": "Estimated time to solubilize", "setting": "[2]; 0.075% in carbon-treated water", "value": 55, "unit": "min"}, {"measurement": "Estimated time to solubilize", "setting": "[2]; 0.075% in citrate buffer", "value": 55, "unit": "min"}, {"measurement": "Estimated time to solubilize", "setting": "[2]; 0.10% in carbon-treated water", "value": 106, "unit": "min"}, {"measurement": "Estimated time to solubilize", "setting": "[2]; 0.10% in citrate buffer", "value": 106, "unit": "min"}, {"measurement": "Estimated time to solubilize", "setting": "[2]; 0.15% in carbon-treated water", "value": "Insoluble after 20 hours"}, {"measurement": "Estimated time to solubilize", "setting": "[2]; 0.15% in citrate buffer", "value": "Insoluble after 20 hours"}, {"measurement": "Initial solubility test (comparative)", "setting": "[2]; 500 ppm concentrations in citrate buffer", "value": "significantly greater solubility than that of Reb D and significantly less solubility than Reb A"}, {"measurement": "Sweetness Factor (SF)", "setting": "panel of trained tasters; Sweetness Equivalent (SE) 2.5%", "value": 521}, {"measurement": "Reb X Concentration (ppm) matching sucrose reference", "setting": "panel of trained tasters; Sweetness Equivalent (SE) 2.5%", "value": 48, "unit": "ppm"}, {"measurement": "Sweetness Factor (SF)", "setting": "panel of trained tasters; Sweetness Equivalent (SE) 5.0%", "value": 380}, {"measurement": "Reb X Concentration (ppm) matching sucrose reference", "setting": "panel of trained tasters; Sweetness Equivalent (SE) 5.0%", "value": 132, "unit": "ppm"}, {"measurement": "Sweetness Factor (SF)", "setting": "panel of trained tasters; Sweetness Equivalent (SE) 7.5%", "value": 295}, {"measurement": "Reb X Concentration (ppm) matching sucrose reference", "setting": "panel of trained tasters; Sweetness Equivalent (SE) 7.5%", "value": 254, "unit": "ppm"}, {"measurement": "Sweetness Factor (SF)", "setting": "panel of trained tasters; [4]", "value": 237}, {"measurement": "Reb X Concentration (ppm) matching sucrose reference", "setting": "panel of trained tasters; [4]", "value": 422, "unit": "ppm"}, {"measurement": "Taste properties compared to Reb A drink", "setting": "[3]; flavored zero caloric black tea drink, 250 ppm Reb X vs 250 ppm Reb A", "value": "much cleaner in finish with less sweetness linger and a more rounded overall sweetness profile"}, {"measurement": "Reb X level closest in sweetness level to a 11.5 Brix high fructose corn syrup sweetened orange flavored sparkling beverage", "setting": "[3]; zero caloric orange-flavored sparkling beverage base", "value": "500 ppm and 550 ppm"}, {"measurement": "Taste compared to Reb A-containing formulations", "setting": "[3]; zero caloric orange-flavored sparkling beverage, Reb X 400 to 750 ppm in 50 ppm increments", "value": "significantly better than comparable Reb A-containing formulations"}, {"measurement": "Taste properties compared to Reb A drink", "setting": "[3]; zero calorie enhanced water drink, 200 ppm Reb X vs 200 ppm Reb A", "value": "cleaner in finish and had reduced sweetness linger and a more rounded overall sweetness taste quality"}]}]}
